Data: patent US11045471B2, “Melanin production inhibitor, whitening agent, fibroblast activator, collagen and/or elastin production promotor and wrinkle ameliorant” (SHOWA DENKO K.K., priority 2016, dated 2021)
In brackets after ≈: the same amount, converted by molar mass.

Assays:
[1] = tested on: aged fibroblasts (NB1RGB cells); experiment: Collagen production in aged human fibroblasts (human collagen type I ELISA); assay type: cell-based; settings: 100 μM, 24 hours, culture supernatant; control = 1.00
Method: Aged fibroblasts were prepared. Normal human fibroblasts in the form of NB1RGB cells (purchased from the Bioresource Center of Riken Japan) were cultured to confluence in a culture flask, and after culturing for 1 hour in Dulbecco's Modified Eagle Medium (DMEM) manufactured by Sigma Corp. containing 600 μM aqueous hydrogen peroxide and 10% (w/v) fetal calf serum, the cells were washed with PBS and cultured for 24 hours after changing the medium to DMEM containing 10% (w/v) fetal calf serum. This procedure was repeated three times to obtain aged fibroblasts.
The resulting aged fibroblasts were seeded into a plastic Petri dish at a seeding density of about 10,000 cells/cm^2 and then cultured for 24 hours in Dulbecco's Modified Eagle Medium (DMEM) manufactured by Sigma Corp. containing 10% (w/v) fetal calf serum. Subsequently, orotic acid or an orotic acid derivative dissolved in purified water (Table 4) was added to the medium at a final concentration of 100 μmol/L followed by additionally culturing for 24 hours. The medium to which orotic acid or orotic acid derivative had not been added was used as a control.
The culture supernatant was recovered after culturing and collagen production was measured using a human collagen type I ELISA kit manufactured by Acel, Inc. 50 μL of culture supernatant of each sample were added to a microplate treated with collagen antibody provided with the kit. After shake culturing for 1 hour at room temperature, the plate was washed three times with the washing solution provided with the kit. 50 μL of horseradish peroxidase-avidin reagent provided with the kit were added thereto followed by shake culturing for 1 hour at room temperature. After again washing three times with the washing solution, 50 μL of the coloring solution provided with the kit were added followed by allowing to stand undisturbed for 15 minutes at room temperature and adding 50 μL aliquots of reaction stopping solution thereto. After mixing by shaking for 1 minute, absorbance was measured at 450 nm.

[2] = tested on: human three-dimensional skin equivalent; experiment: Cell survival rate in human three-dimensional skin equivalent (Cell Count Reagent SF); assay type: cell-based; settings: for Cell Survival Rate (Relative Value): 15 days culture, control (PBS) = 1
Method: (§1) The effect of inhibiting melanin production in human three-dimensional skin was examined. Human three-dimensional skin equivalent manufactured by MatTek Corp. was purchased and pre-cultured for 1 hour with the dedicated culture medium, EPI-100LLMM, available from the same manufacturer.
(§2) Following pre-culturing, orotic acid-glutamic acid dissolved in phosphate-buffered saline (PBS) was added to the skin surface at a final concentration of 0.2% (w/v), 0.5% (w/v) or 1.0% (w/v), or orotic acid was added to the skin surface at a final concentration of 0.5% (w/v), followed by culturing for 15 days. The cell survival rates of the human three-dimensional skin equivalent following addition of orotic acid or orotic acid-glutamic acid were measured using the Cell Count Reagent SF manufactured by Nacalai-Tesque, Inc. After culturing, the skin was transferred to medium containing 1% Cell Count Reagent SF and after culturing for 3 hours, absorbance was measured at […]. Cell survival rates were calculated as the measured value based on a value of 1 for the control.

[3] = tested on: human three-dimensional skin equivalent; experiment: Melanin production inhibition in human three-dimensional skin equivalent; assay type: cell-based; settings: for Melanin Production Rate (relative value): 15 days culture, per cell, control (PBS) = 1
Method: as §1, §2
After measuring cell survival rates in Experimental Example 2, the skin was thoroughly rinsed with PBS followed by sampling the skin and recovering in a 1.5 mL microtube. 150 μL of a dissolving solution containing sodium dodecyl sulfate (1% (w/v)), 0.05 mM ethylenediaminetetraacetate and 10 mM Tris-HCl (pH 6.8) were added thereto. After stirring, 3 μL of 5 mg/mL protease K were added followed by dissolving for 6 hours at 45° C., adding 25 μL of 500 mM […] and 5 μL of 30% aqueous hydrogen peroxide and further treating for 30 minutes at 80° C. After allowing the sample to cool to room temperature, 20 μL of a 2:1 solution of chloroform and methanol were added to the sample followed by centrifuging for 10 minutes at the highest rotating speed of the centrifuge. 80 μL aliquots of the sample supernatant were recovered onto microplates followed by measurement of absorbance at 405 nm. Melanin production rate was determined by calculating the extinction coefficient of each sample based on a value of 1 for the control and dividing that value by the cell survival rate determined in Example 2 to calculate the melanin production rate per cell.

[4] = tested on: Normal human fibroblasts (NB1RGB cells); experiment: Elastin production in normal human fibroblasts (elastin assay kit); assay type: cell-based; settings: 48 hours, control = 1.00
Method: Normal human fibroblasts in the form of NB1RGB cells (purchased from the Bioresource Center of Riken Japan) were seeded at a seeding density of about 10,000 cells/cm^2 and cultured for 24 hours in DMEM medium containing 10% (w/v) fetal calf serum. An orotic acid derivative according to the present invention dissolved in pure water to a final concentration of 0 μM (control), 0.1 μM, 1 μM, 10 μM or 100 μM or orotic acid dissolved in purified water to a final concentration of 100 μM was added to DMEM medium containing 10% (w/v) fetal calf serum followed by culturing for 48 hours. The cells were subsequently recovered, the elastin was extracted with an elastin assay kit manufactured by Biocolor Ltd., and absorbance of the extract was measured at a wavelength of 513 nm.

[5] = cited from earlier work
[6] = Effect of pH on water solubility (saturated concentration by HPLC)
Method: (§3) Subsequently, the pH of the remaining sample solution was adjusted using 1.0 N or 0.05 N aqueous sodium hydroxide solution, and in the case all of the sample had dissolved in the solution, sample was further added followed by stirring for 15 hours at room temperature (22° C.±2° C.) so that some of the sample was left undissolved and 1 mL of supernatant was similarly collected. Supernatant was repeatedly collected while adjusting the pH as necessary to obtain samples.
(§4) The resulting samples were filtered with a membrane filter having a pore size of 22 μm followed by subjecting the resulting filtrate to high-performance liquid chromatography (HPLC).
(§5) HPLC analyses were carried out using the LC Solution and PDA detector (CBM-20A) manufactured by Shimadzu Corp. and the Shodex RSpak DM-614 column at a column temperature of 40° C. and flow rate of 0.8 ml/min while using 0.02% H3PO4 for the mobile phase.
(§6) The concentration of each sample dissolved in solution was calculated from the area of the peak that coincided with each sample in the resulting analysis data.

[7] = physchem; settings: 22 °C, thermodynamic from solid
Method: as §3, §4, §5, §6

[8] = 22 °C, pH 2.3, water, thermodynamic from solid
[9] = 22 °C, pH 4, aqueous buffer, thermodynamic from solid

## O=C(O)c1cc(=O)[nH]c(=O)[nH]1 [Orotic acid, reference compound]
[1]
  Collagen Production (relative value): 1.14
[2]; 0.5% (w/v) on skin surface
  Cell Survival Rate (Relative Value): 1.1
[3]; 0.5% (w/v)
  Melanin Production Rate (relative value): 0.70
[3]; human three-dimensional skin equivalent
  Effect of inhibiting melanin production, statement in words: superior effect of inhibiting melanin production
[4]; 100 μM
  Elastin Production (relative value): 1.12
[5]; alcohol such as ethanol
  Solubility in alcohol: practically insoluble
[5]; water
  Solubility in water: extremely insoluble
[6]; pH 2.3, room temperature (22° C.±2° C.)
  Saturated concentration: 0.08 % (w/v)
[6]; pH 4.6, room temperature (22° C.±2° C.)
  Saturated concentration: 0.27 % (w/v)
[6]; pH 4.8, room temperature (22° C.±2° C.)
  Saturated concentration: 0.26 % (w/v)
[6]; pH 5.8, room temperature (22° C.±2° C.)
  Saturated concentration: 0.19 % (w/v)
[6]; pH 7.1, room temperature (22° C.±2° C.)
  Saturated concentration: 0.16 % (w/v)

## O=C(O)C[C@H](NC(=O)c1cc(=O)[nH]c(=O)[nH]1)C(=O)O [Orotic acid-Asp]
[6]; [8]
  solubility thermodynamic at 15 h: 9.5 mg/mL (≈ 35 mM)
[6]; [9]
  solubility thermodynamic at 15 h: 98.2 mg/mL (≈ 362 mM)
[6]; 22 °C, pH 4.2, aqueous buffer, thermodynamic from solid
  solubility at 15 h: > 111 mg/mL

## O=C(N[C@@H](Cc1c[nH]cn1)C(=O)O)c1cc(=O)[nH]c(=O)[nH]1 [Orotic acid-His]
[1]
  Collagen Production (relative value): 1.23
[7]; pH 4.9, aqueous buffer
  solubility thermodynamic at 15 h: 2.2 mg/mL (≈ 7.5 mM)
[7]; pH 7.2, aqueous buffer
  solubility thermodynamic at 15 h: 12.5 mg/mL (≈ 42.6 mM)

## O=C(O)CNC(=O)c1cc(=O)[nH]c(=O)[nH]1 [Orotic acid-Gly]
[1]
  Collagen Production (relative value): 1.23
[6]; 22 °C, pH 2.8, aqueous buffer, thermodynamic from solid
  solubility thermodynamic at 15 h: 1.1 mg/mL (≈ 5.16 mM)
[6]; 22 °C, pH 3.6, aqueous buffer, thermodynamic from solid
  solubility thermodynamic at 15 h: 3.2 mg/mL (≈ 15 mM)
[6]; [9]
  solubility thermodynamic at 15 h: 5.5 mg/mL (≈ 25.8 mM)
[6]; 22 °C, pH 4.5, aqueous buffer, thermodynamic from solid
  solubility thermodynamic at 15 h: 16.6 mg/mL (≈ 77.9 mM)
[6]; 22 °C, pH 5.1, aqueous buffer, thermodynamic from solid
  solubility thermodynamic at 15 h: 38.3 mg/mL (≈ 180 mM)
[6]; 22 °C, pH 6.1, aqueous buffer, thermodynamic from solid
  solubility thermodynamic at 15 h: 66 mg/mL (≈ 310 mM)

## O=C(O)CC[C@H](NC(=O)c1cc(=O)[nH]c(=O)[nH]1)C(=O)O [Orotic acid-Glu]
[1]
  Collagen Production (relative value): 1.53
[2]; 0.2% (w/v) on skin surface
  Cell Survival Rate (Relative Value): 1.4
[2]; 0.5% (w/v) on skin surface
  Cell Survival Rate (Relative Value): 1.2
[2]; 1% (w/v) on skin surface
  Cell Survival Rate (Relative Value): 0.9
[2]; at the test concentrations 0.2%, 0.5%, 1.0% (w/v)
  Cell survival rate, statement in words: no decreases in cell survival rates observed
[3]; 0.2% (w/v)
  Melanin Production Rate (relative value): 0.61
[3]; 0.5% (w/v)
  Melanin Production Rate (relative value): 0.71
[3]; 1% (w/v)
  Melanin Production Rate (relative value): 0.50
[4]; 0.1 μM
  Elastin Production (relative value): 1.20
[4]; 1 μM
  Elastin Production (relative value): 1.35
[4]; 10 μM
  Elastin Production (relative value): 1.24
[4]; 100 μM
  Elastin Production (relative value): 1.24
[6]; [8]
  solubility thermodynamic at 15 h: 13 mg/mL (≈ 45.6 mM)
[6]; 22 °C, pH 5.2, aqueous buffer, thermodynamic from solid
  solubility thermodynamic at 15 h: 54.3 mg/mL (≈ 190 mM)
